Data: patent US5187160A, “Cephem compound” (Fujisawa Pharmaceutical Co., Ltd., priority 1989, dated 1993)
Structures can show the parent of a compound that is named as a salt.

Tested on: P. aeruginosa 26
Assay: In vitro antibacterial activity, two-fold agar-plate dilution method (MIC)
Type: cell-based
Details: Pseudomonas aeruginosa, heart infusion agar, 10^8 viable cells per ml, 37° C. for 20 hours, read-out: MIC (minimal inhibitory concentration)
Procedure: Now in order to show the utility of the object compound [I], the test data on MIC (minimal inhibitory concentration) of representative compound [I] of this invention is shown in the following.
In vitro antibacterial activity was determined by the two-fold agar-plate dilution method as described below.
One loopful of an overnight culture of each test strain in Trypticase-soy broth (10^8 viable cells per ml) was streaked on heart infusion agar (HI-agar) containing graded concentrations of representative test compound, and the minimal inhibitory concentration (MIC) was expressed in terms of μg/ml after incubation at 37° C. for 20 hours.

- MIC: 1.56 µg/mL
Compound: CCON=C(C(=O)NC1C(=O)N2C(C(=O)[O-])=C(C[n+]3ccc(N)n3CCO)CSC12)c1csc(N)n1 (stereo not drawn) [Example 2, Sulfuric acid salt of 7β-[2-(2-aminothiazol-4-yl)-2-ethoxyiminoacetamido]-3-[3-amino-2-(2-hydroxyethyl)-1-pyrazolio]methyl-3-cephem-4-carboxylate (syn isomer)]
